Read-outs that look alike come from different tables or passages of the source.

Series [1] concerns rat. The conditions noted are these: oral; cited from earlier work.
In series [2] the test system is oxidative damage in certain model systems. The conditions noted are these: certain model systems (Oxenkrug 2005); cited from earlier work.
Series [3] is described as follows: Solubility of melatonin in aqueous solubilizer mixtures (overnight end-over-end rotation, filtration, HPLC). The class given is physicochemical. The conditions noted are these: 20% (w/w) aqueous glycofurol, 25 °C, aqueous with cosolvent or surfactant or cyclodextrin, thermodynamic from solid.
Procedure: Peaks were detected by UV absorption at 277 μm wavelength. […] To study the effect of adding DMSO to this medium, a medium consisting of 20% (w/w) glycofurol and 40% (w/w) DMSO in water was also prepared.
The procedure of series [4]:
The determination of what constitutes initial amount and final amount shall be made using the same experimental techniques. In the experiments presented below, initial and final amounts of degradation products were determined using HPLC as an exemplary measurement technique.
High pressure liquid chromatography (HPLC) elution profiles obtained from a 100×4.6 mm Phenomenex Kinetex column of XB-C18 silica (5 μm particle size) eluted with a linear gradient of solvent B (acetonitrile containing 0.1% v/v acetic acid) 10% to 50% in solvent A (water containing 0.1% v/v acetic acid) from 0.8 to 7.8 min, returning to 10% B at 8.8 min. Peaks were detected by UV absorption at […] wavelength. Overloading sample sizes were used to facilitate the detection of small amounts of breakdown products. […] (FIG. 1A) or 25° C. (FIG. 1B).
HPLC elution profiles were obtained as described for FIG. 1. […] (FIG. 2A) or 25° C. (FIG. 2B).
HPLC elution profiles were obtained as described for FIG. 1. […] (FIG. 3A) or 25° C. (FIG. 3B).

For series [5] the following is noted: cited from earlier work; for solubility of melatonin in DMSO: room temperature (20 or 25° C.).
Where [6] appears, read: melatonin 10 mg/mL in 20% (w/w) aqueous glycofurol, 45 days at 25° C.
Setting [7] is: melatonin 10 mg/mL in 20% (w/w) glycofurol, 40% (w/w) DMSO in water, 45 days at 25° C.

On to `C[S+](C)[O-]` [DMSO, dimethyl sulfoxide], for which, in series [1], the LD50 was 14500 mg/kg.
`CC(=O)NCCc1c[nH]c2ccc(O)cc12` [N-acetylserotonin]: the “protective effect against oxidative damage, times as strong as that of melatonin” value in series [2] is on record as 5 to 20 times.
Turning to `CCO` [ethanol], the LD50 in series [1] is 7060 mg/kg.
With `COc1ccc2[nH]cc(CCNC(C)=O)c2c1` [melatonin, N-acetyl-5-methoxytryptamine], the solubility in series [3] was more than 10 mg/mL. In addition, the melatonin breakdown entry was “no evidence of the melatonin breakdown” in series [4] (20% (w/w) glycofurol, 40% (w/w) DMSO in water, 45 days at 25° C.) and “no evidence of the melatonin breakdown” in series [4] (50% (w/w) DMSO, 45 days at 25° C.). Further, in series [4] (45 days, 10 mg/mL), the “degradation peaks (8.1, 8.4 and 8.6 min) together, share of the recovered UV-absorbent material” value came to 0.36%. The “melatonin peak at 6.0 min” value in series [4] (melatonin 10 mg/mL in 20% (w/w) aqueous glycofurol, 45 days at 5° C.) was 5871 absorption units; in series [4] (setting [6]), 5831 absorption units; in series [4] (melatonin 10 mg/mL in 20% (w/w) glycofurol, 40% (w/w) DMSO in water, 45 days at 5° C.), 6831 absorption units; in series [4] (setting [7]) it was 6851 absorption units; in series [4] (melatonin 10 mg/mL in 50% (w/w) aqueous DMSO, 45 days at 5° C.), 8771 absorption units; in series [4] (melatonin 10 mg/mL in 50% (w/w) aqueous DMSO, 45 days at 25° C.), 8771 absorption units. Besides, the “additional peak at 8.4 min not seen in the 5° C. sample” value in series [4] (setting [6]) was 8.314 absorption units. In series [4] (setting [6]), the “additional peak at 8.6 min not seen in the 5° C. sample” value is recorded as 5 absorption units. Also, the “additional peak at […] not seen in the 5° C. sample” value in series [4] (setting [6]) turned out to be 7.973 absorption units. For the same compound, in series [4] (setting [7]), the “additional peaks of UV-absorbent material” value was “no additional peaks”. Besides, the additional peaks entry in series [4] (melatonin 10 mg/mL in 50% (w/w) aqueous DMSO, 45 days at 5° C. or 25° C.) is “No additional peaks”. In series [4] (solutions 1), 2) and 3), sealed tubes, 25° C., HPLC on days 0, 10, 17, 31 and 45), the “decline in the melatonin concentrations” value is “no significant decline”. Besides, in series [5] (20° C., EC SCCS/1315/10, 2010), the “solubility of melatonin in ethanol” value is 182 mg/mL. Moreover, the “solubility of melatonin in ethanol/water (40/60 v/v) mixture” value in series [5] (20° C.) is 64 mg/mL. Moreover, the “solubility of melatonin in water” value in series [5] (20° C.) is “approximately 2 g/L”; in series [5] (50° C.), approximately 5 mg/mL. The “solubility of melatonin in DMSO” value in series [5] (source MedChem) is recorded as not above 200 mM; in series [5] (source abcam), not above 100 mM; in series [5] (source tocris), not above 50 mM.

These data come from US20260041774A1 (RepoCeuticals A/S, priority 2017, published 2026).
